Data published in article PMC9930781, “Design, synthesis, docking, and anticancer evaluations of new thiazolo[3,2-a] pyrimidines as topoisomerase II inhibitors” (Journal of Enzyme Inhibition and Medicinal Chemistry, 2023).
Like-named read-outs stand apart in the source and are kept apart here.

How the values were obtained:
[1] = test system: A549 non-small cell lung cancer (NSCLC) cell line; assay: MTT cytotoxicity assay, A549
Procedure: (§1) The MTT test was used to evaluate the inhibitory effects of the substances on cell proliferation in the aforementioned cell lines. This colorimetric assay targets the mitochondrial succinate dehydrogenase of living cells to change yellow tetrazolium bromide (MTT) to a purple formazan derivative. […] Then, the cells were incubated for 24 h and exposed to various chemical concentrations. 20 μL of a 5 mg/mL MTT solution was applied after a 24-h drug treatment period and incubated for 4 h. To dissolve the produced purple formazan, each well receives 100 μL of dimethyl sulfoxide (DMSO). […] The formula for calculating the relative percentage of cell viability was (A570 of treated samples/A570 of the untreated sample) × 100.

[2] = test system: MCF7 breast cancer cell line; assay: MTT cytotoxicity assay, MCF7; conditions: SI = IC50 normal cell (WI-38)/IC50 cancer cell (MCF7)
Procedure: as §1
The newly prepared compounds were screened against three cancer cell lines: namely, breast cancer cell line MCF7, non-small cell lung cancer (NSCLC) cell line A549, and renal cancer cell line A498, using the MTT colorimetric assay.

[3] = In vitro cytotoxicity on WI-38 human cell line (MTT); format: cell-based; conditions: WI-38 normal fibroblast cells, WI-38 normal fibroblasts
Procedure: Cell line cells were provided from the American Type Culture Collection cultured in DMEM (Invitrogen/Life Technologies) with 10% FBS (Hyclone), 1% penicillin-streptomycin, and 10 μg/mL insulin (Sigma). The remainder of the chemicals and reagents were provided by either Sigma or Invitrogen. Prior to the MTT assay, plated cells were incubated for 24 h in a 96-well plate with 100 μl of the test substance per well and 100 μl of complete growth medium (cell density 1.2–1.8 × 10,000 cells/well). Cultures were transferred from the incubator and placed in a sterile work area or laminar flow hood. Then, 10% of the culture medium volume of reconstituted MTT was added, and the cultures were incubated for an additional 2 h. After that, cultures were taken out of the incubator, and the formazan crystals were dissolved using MTT solubilising solution [M-8910] in an amount equal to the volume of the original culture medium. The absorbance at 570 nm was measured. Finally, the IC50 of the test compound compared to the reference was calculated using the GraphPad Prism software.

human topoisomerase II = human topoisomerase II (Homo sapiens, UniProt P11388); assay: DNA Topo II inhibition (kDNA decatenation) assay; format: biochemical
Procedure: The ATP-dependent decatenation of kinetoplast DNA (kDNA) obtained from Crithidia fasciculata, which consists of a network of numerous minicircles (2.3 Kb) and some maxicircles, was used to measure topoisomerase II inhibition. Reactions took place in 20 μL and comprised topoisomerase II, 200–300 ng of kDNA, and 120 mM KCl with 50 mM Tris-HCl, pH 8, 10 mM MgCl2, 0.5 mM ATP, and 0.5 mM dithiothreitol. In preliminary tests, the quantity of topoisomerase II (5 units) was changed to decatenate almost 100% of the kDNA under these assay circumstances. […] The products in the reaction mixture were separated by a 1% agarose gel after the reaction was complete and then could be seen after being stained with ethidium bromide (0.2 μg/mL). The gels were run at 100 V for about 40 min and visualised under UV transillumination.
This assay is based on the fact that human Topo II can decatenate interlinked double-stranded DNA molecules.

A549 cells [4] = assay: Annexin V-FITC apoptosis assay; format: cell-based, human
Procedure: Each well of a 6-well plate received 1 × 10^5 conc. lung cancer (A549) cells that were then incubated for 24 h. The cells were then exposed for 24 h to 2 nM compound 4c or (0.1%) DMSO before being harvested, washed with PBS, and stained for 15 min at room temperature in the dark with annexin V-FITC and PI in binding buffer ([…] at pH 7.4). The flow cytometer was then used to examine the cells.
Apoptotic cell death is a method by which an anticancer agent destroys tumour cells. Therefore, compound 4c was additionally estimated through an Annexin V-FITC experiment utilising A549 cells to evaluate if the cytotoxic action of the novel compound is related to necrosis or apoptosis.

[5] = test system: A498 renal cell carcinoma cell line; assay: MTT cytotoxicity assay, A498
Procedure: as §1

A549 cells [6] = assay: Cell cycle analysis by flow cytometry; format: cell-based, human; conditions: A549, 4c at IC50 (2 nM), 24 h (b61 also says 48 h)
Procedure: Briefly, a six-well plate containing lung cancer (A549) cells was seeded with 1 × 10^5 cells per well and then incubated for 24 h. 2 nM of compound 4c or 0.1% DMSO was applied to the cells for 24 h. Following that, cells were gathered and fixed in ice-cold 70% ethanol at 4 °C for 12 h. The cells were then rinsed with cold Phosphate Buffer Saline (PBS) and incubated for 30 min at 37 °C in 0.5 ml of PBS after the ethanol was removed. Propidium iodide was used to stain the cells for 30 min in the dark. DNA content was determined using a flow cytometer.
The cell cycle is required for cell division and replication. The cell cycle was divided into four distinct phases: G1 phase ([…]), S phase (synthesis), G2 phase (interphase), and M phase (mitosis). The G1 phase, also known as the post-mitotic pre-synthesis phase, is distinguished by direct cell division. DNA replication identifies the S phase. The G2 phase, premitotic, or post-synthetic phase, which can be considered the actual division, is when the cell prepares to split into two cells. Finally, the doubled DNA organised in chromosomes is separated during the M- or mitosis-phase division. Many anticancer drugs cause apoptosis, cell cycle arrest, or a combination of both as part of their cytotoxic action.

human topoisomerase II, sequence (P11388 whole entry): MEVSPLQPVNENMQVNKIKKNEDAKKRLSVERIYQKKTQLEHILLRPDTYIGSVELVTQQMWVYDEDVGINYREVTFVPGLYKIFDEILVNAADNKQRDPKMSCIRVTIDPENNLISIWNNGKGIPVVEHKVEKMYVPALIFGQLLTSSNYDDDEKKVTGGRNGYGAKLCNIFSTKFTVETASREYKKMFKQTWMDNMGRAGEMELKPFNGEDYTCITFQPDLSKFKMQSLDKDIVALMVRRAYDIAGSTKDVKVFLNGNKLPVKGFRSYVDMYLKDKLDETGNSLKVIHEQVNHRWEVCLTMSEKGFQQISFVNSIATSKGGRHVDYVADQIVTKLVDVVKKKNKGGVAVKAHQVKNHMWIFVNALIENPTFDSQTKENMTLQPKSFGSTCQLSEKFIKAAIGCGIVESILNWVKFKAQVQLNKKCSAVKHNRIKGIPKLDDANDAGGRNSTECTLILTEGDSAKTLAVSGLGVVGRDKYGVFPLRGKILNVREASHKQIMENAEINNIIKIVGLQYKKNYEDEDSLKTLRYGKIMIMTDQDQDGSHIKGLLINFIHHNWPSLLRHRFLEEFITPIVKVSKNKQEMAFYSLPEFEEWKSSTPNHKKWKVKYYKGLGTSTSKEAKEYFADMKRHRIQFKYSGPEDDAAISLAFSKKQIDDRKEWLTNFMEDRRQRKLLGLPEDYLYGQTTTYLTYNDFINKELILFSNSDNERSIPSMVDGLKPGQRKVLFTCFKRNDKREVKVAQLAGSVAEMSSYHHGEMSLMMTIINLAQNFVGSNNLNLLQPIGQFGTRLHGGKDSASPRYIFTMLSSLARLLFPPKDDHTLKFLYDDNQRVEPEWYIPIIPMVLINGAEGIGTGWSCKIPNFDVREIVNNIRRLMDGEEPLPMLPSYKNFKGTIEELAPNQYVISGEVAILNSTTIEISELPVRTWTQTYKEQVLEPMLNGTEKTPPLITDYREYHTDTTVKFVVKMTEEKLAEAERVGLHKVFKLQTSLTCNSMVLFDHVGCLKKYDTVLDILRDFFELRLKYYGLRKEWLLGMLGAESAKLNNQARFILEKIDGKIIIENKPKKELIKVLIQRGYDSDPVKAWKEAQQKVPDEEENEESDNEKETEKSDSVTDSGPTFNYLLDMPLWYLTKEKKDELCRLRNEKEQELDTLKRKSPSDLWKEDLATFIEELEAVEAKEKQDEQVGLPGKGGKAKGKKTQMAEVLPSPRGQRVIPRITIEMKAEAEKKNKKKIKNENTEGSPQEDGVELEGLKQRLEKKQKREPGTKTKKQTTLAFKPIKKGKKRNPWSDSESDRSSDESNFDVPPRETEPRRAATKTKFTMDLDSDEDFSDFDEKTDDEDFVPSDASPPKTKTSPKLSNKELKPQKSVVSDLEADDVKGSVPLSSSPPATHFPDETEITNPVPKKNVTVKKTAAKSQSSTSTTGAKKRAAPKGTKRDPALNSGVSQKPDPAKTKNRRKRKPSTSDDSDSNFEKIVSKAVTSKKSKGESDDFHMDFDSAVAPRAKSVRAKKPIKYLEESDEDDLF

CCOC(=O)C1=C(C)N=C2SC=C(NC(=O)c3c(Cl)cc(Cl)cc3Cl)N2C1c1ccc(OC)cc1OC (stereo not drawn) [Compound 4c, Ethyl 5–(2,4-dimethoxyphenyl)-7-methyl-3–(2,4,6-trichlorobenzamido)-5H-thiazolo[3,2-a]pyrimidine-6-carboxylate]
IC50 ([1]; Homo sapiens, A549, 24 h, read-out: Cytotoxicity IC50 A549± SD, MTT, A549, 24 h treatment, mean ± SD of two independent assays): 2 nM | Selectivity index (SI) A549 ([1]; SI = IC50 normal cell (WI-38)/IC50 cancer cell (A549)): 7770 | IC50 ([1]; read-out: Cytotoxicity IC50 A549± SD, MTT, A549, 24 h treatment, mean ± SD of two independent assays): 1 nM | Selectivity index (SI) MCF7 [2]: 7770 | IC50 at 24 h [3]: 15.5 ± 0.84 µM | %inh TOPO II (human topoisomerase II; conc 0.1 (μM)): 44% | %inh TOPO II (human topoisomerase II; conc 1 (μM)): 60% | %inh TOPO II (human topoisomerase II; conc 10 (μM)): 79% | %inh TOPO II (human topoisomerase II; conc 100 (μM)): 92% | IC50 (human topoisomerase II; kDNA decatenation, four concentrations 0.1-100 µM, mean ± SD of two independent assays): 230 ± 10 nM | Topo II potency relative to Doxorubicin (IC50 ratio) (human topoisomerase II; versus IC50 of Doxorubicin): 3.6 fold | Topo II potency relative to Etoposide (IC50 ratio) (human topoisomerase II; versus IC50 of Etoposide): 1.4 fold | elevation in the total apoptosis versus control (A549 cells [4]; A549): 26.47 fold | increase in early apoptotic cells versus control (A549 cells [4]; A549): 61.92 fold | increase in late apoptotic cells versus control (A549 cells [4]; A549): 97 fold | increase in the percentage of necrosis versus control (A549 cells [4]; A549): 2.5 fold | late apoptotic cells (A549 cells [4]; A549, 4c at IC50 (2 nM), control 0.13%): 12.61% | early apoptotic cells (A549 cells [4]; A549, 4c at IC50 (2 nM), control […]): 24.15% | IC50 ([5]; Homo sapiens, A498, 24 h, read-out: Cytotoxicity IC50 A498± SD, MTT, A498, 24 h treatment, mean ± SD of two independent assays): 1 nM | Selectivity index (SI) A498 ([5]; SI = IC50 normal cell (WI-38)/IC50 cancer cell (A498)): 15540 | IC50 ([5]; read-out: Cytotoxicity IC50 A498± SD, MTT, A498, 24 h treatment, mean ± SD of two independent assays): 2 nM | %G2/M (A549 cells [6]; control 13.97): 4.04% | %S (A549 cells [6]; control 29.64): 26.89% | %G0–G1 (A549 cells [6]; control 56.39): 69.07%
